Our source for the IC50 values is US20100267774A1, “P38 MAP KINASE INHIBITORS” (CHROMA THERAPEUTICS LTD., priority 2007, published 2010).

The subject of one experiment is THP-1 TNFα release. Nature of the experiment: LPS-stimulation of THP-1 cells, TNF-α release by ELISA. The format is cell-based. Conditions: Homo sapiens, THP-1, 6 h; read-out: Inhibitor activity versus THP-1 TNFα release. As for the experimental part: THP-1 cells were plated in 100 μl at a density of 4×10^4 cells/well in V-bottomed 96 well tissue culture treated plates and incubated at 37° C. in 5% CO2 for 16 hrs. 2 hrs after the addition of the inhibitor in 100 μl of tissue culture media, the cells were stimulated with LPS (E coli strain 005:B5, Sigma) at a final concentration of 1 μg/ml and incubated at 37° C. in 5% CO2 for 6 hrs. TNF-α levels were measured from cell-free supernatants by sandwich ELISA (R&D Systems #QTA00B).

The target of the next experiment is T1, p38 MAP Kinase a (Homo sapiens, UniProt Q16539).
T1 construct: purchased Upstate (Dundee UK)
Nature of the experiment: p38 MAP Kinase activity, radiometric filter-binding assay (Upstate). It is filed as biochemical. As to conditions: IC50 range; read-out: Inhibitor activity versus p38 MAPKa. As for the experimental part: The ability of compounds to inhibit p38 MAP a Kinase activity was measured in an assay performed by Upstate (Dundee UK). In a final reaction volume of 25 μL, p38 MAP Kinase a (5-10 mU) is incubated with 25 mM Tris pH 7.5, 0.002 mMEGTA, 0.33 mg/mL myelin basic protein, 10 mM MgAcetate and [g-33P-ATP] (specific activity approx. 500 cpm/pmol, concentration as required). The reaction is initiated by the addition of the MgATP mix. After incubation for 40 minutes at room temperature, the reaction is stopped by the addition of 5 μL of a 3% phosphoric acid solution. 10 μL of the reaction is then spotted onto a P30 filtermat and washed three times for 5 minutes in 75 mM phosphoric acid and once in methanol prior to drying and scintillation counting.
Duplicate data points are generated from a 1/3 log dilution series of a stock solution in DMSO. Nine dilutions steps are made from a top concentration of 10 μM, and a ‘no compound’ blank is included. The standard radiometric filter-binding assay is performed at an ATP concentration at, or close to, the Km. Data from scintillation counts are collected and subjected to free-fit analysis by Prism software. From the curve generated, the concentration giving 50% inhibition is determined and reported.

pIC50: −log10 of the molar value. Where only a bound is given, the exact number is not on record here.

T1 sequence (Q16539 whole entry): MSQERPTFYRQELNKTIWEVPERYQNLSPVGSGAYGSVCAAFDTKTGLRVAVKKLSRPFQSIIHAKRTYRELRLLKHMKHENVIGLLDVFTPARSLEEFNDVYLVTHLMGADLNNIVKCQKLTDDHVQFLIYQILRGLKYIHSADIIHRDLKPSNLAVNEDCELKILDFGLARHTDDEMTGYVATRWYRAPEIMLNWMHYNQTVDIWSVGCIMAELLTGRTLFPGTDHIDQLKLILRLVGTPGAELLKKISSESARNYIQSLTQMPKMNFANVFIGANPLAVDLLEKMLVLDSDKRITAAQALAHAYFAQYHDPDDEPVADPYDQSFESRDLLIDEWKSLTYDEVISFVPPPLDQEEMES

On to `CC(C)C[C@H](NCCc1ccc(-n2c(N)c(C(=O)c3ccc(F)cc3F)ccc2=O)cc1)C(=O)O[C@@H]1CC(C)CC[C@H]1C(C)C` (stereo in doubt) [Example 13, (1R,2S,5S)-2-Isopropyl-5-methylcyclohexyl N-(2-{4-[6-amino-5-(2,4-difluorobenzoyl)-2-oxopyridin-1(2H)-yl]phenyl}ethyl)-L-leucinate], for which the pIC50 in the experiment with THP-1 TNFα release is above 7.00; at p38 MAP Kinase a it was below 6.00.
`Nc1c(C(=O)c2ccc(F)cc2F)ccc(=O)n1-c1ccc(CCN[C@H](C(=O)OC2CCCC2)c2ccccc2)cc1` [Example 1]: the pIC50 was above 7.00 in the experiment on THP-1 TNFα release and 6.00 to 7.00 on p38 MAP Kinase a.
For `CC(C)[C@H](NCCc1ccc(-n2c(N)c(C(=O)c3ccc(F)cc3F)ccc2=O)cc1)C(=O)OC1CCCC1` [Example 5, Cyclopentyl N-[2-(4-{6-amino-5-[(2,4-difluorophenyl)carbonyl]-2-oxopyridin-1(2H)-yl}phenyl)ethyl]-L-valinate], the pIC50 in the experiment on THP-1 TNFα release is above 7.00; on p38 MAP Kinase a, 6.00 to 7.00.
On to `CC(C)[C@H](NCCc1ccc(-n2c(N)c(C(=O)c3ccc(F)cc3F)ccc2=O)cc1)C(=O)OC(C)(C)C` [Example 6, tert-butyl N-[2-(4-{6-amino-5-[(2,4-difluorophenyl)carbonyl]-2-oxopyridin-1(2H)-yl}phenyl)ethyl]-L-valinate], for which the pIC50 with THP-1 TNFα release and at p38 MAP Kinase a was 6.00 to 7.00 throughout.
For the compound `CC(C)(C)[C@H](NCCc1ccc(-n2c(N)c(C(=O)c3ccc(F)cc3F)ccc2=O)cc1)C(=O)OC1CCCC1` [Example 7, Cyclopentyl N-[2-(4-{6-amino-5-[(2,4-difluorophenyl)carbonyl]-2-oxopyridin-1(2H)-yl}phenyl)ethyl]-3-methyl-L-valinate], the pIC50 is below 6.00 in the experiment on THP-1 TNFα release and 6.00 to 7.00 at p38 MAP Kinase a.
For `CC(C)(C)OC(=O)[C@@H](NCCc1ccc(-n2c(N)c(C(=O)c3ccc(F)cc3F)ccc2=O)cc1)C(C)(C)C` [Example 8, tert-butyl N-[2-(4-{6-amino-5-[(2,4-difluorophenyl)carbonyl]-2-oxopyridin-1(2H)-yl}phenyl)ethyl]-3-methyl-L-valinate], the pIC50 with THP-1 TNFα release was below 6.00; on p38 MAP Kinase a it was 6.00 to 7.00.
As for `CC(C)C[C@@H](NCCc1ccc(-n2c(N)c(C(=O)c3ccc(F)cc3F)ccc2=O)cc1)C(=O)OC1CCCC1` [Example 9, Cyclopentyl N-[2-(4-{6-amino-5-[(2,4-difluorophenyl)carbonyl]-2-oxopyridin-1(2H)-yl}phenyl)ethyl]-D-leucinate], the pIC50 in the experiment with THP-1 TNFα release and at p38 MAP Kinase a was 6.00 to 7.00 each time.
In the case of `CC(C)(C)OC[C@H](NCCc1ccc(-n2c(N)c(C(=O)c3ccc(F)cc3F)ccc2=O)cc1)C(=O)OC1CCCC1` [Example 11, Cyclopentyl N-[2-(4-{6-amino-5-[(2,4-difluorophenyl)carbonyl]-2-oxopyridin-1(2H)-yl}phenyl)ethyl]-O-tert-butyl-L-serinate], the pIC50 in the experiment on THP-1 TNFα release is above 7.00; at p38 MAP Kinase a it was 6.00 to 7.00.
`CC(C)(C)OC[C@H](NCCc1ccc(-n2c(N)c(C(=O)c3ccc(F)cc3F)ccc2=O)cc1)C(=O)OC(C)(C)C` [Example 12, tert-butyl N-[2-(4-{6-amino-5-[(2,4-difluorophenyl)carbonyl]-2-oxopyridin-1(2H)-yl}phenyl)ethyl]-O-tert-butyl-L-serinate]: the values for the pIC50 in the experiment with THP-1 TNFα release and at p38 MAP Kinase a were below 6.00 and 6.00 to 7.00, respectively.
With `C[C@@H](OC(C)(C)C)[C@H](NCCc1ccc(-n2c(N)c(C(=O)c3ccc(F)cc3F)ccc2=O)cc1)C(=O)OC1CCCC1` [Example 15, Cyclopentyl N-[2-(4-{6-amino-5-[(2,4-difluorophenyl)carbonyl]-2-oxopyridin-1(2H)-yl}phenyl)ethyl]-O-tert-butyl-L-threoninate], the pIC50 in the experiment with THP-1 TNFα release is below 6.00; at p38 MAP Kinase a it was 6.00 to 7.00.
For the compound `C[C@@H](O)[C@H](NCCc1ccc(-n2c(N)c(C(=O)c3ccc(F)cc3F)ccc2=O)cc1)C(=O)OC1CCCC1` [Example 17, Cyclopentyl N-[2-(4-{6-amino-5-[(2,4-difluorophenyl)carbonyl]-2-oxopyridin-1(2H)-yl}phenyl)ethyl]-L-threoninate], the pIC50 with THP-1 TNFα release and on p38 MAP Kinase a was above 7.00 each time.
`CC[C@H](C)[C@H](NCCc1ccc(-n2c(N)c(C(=O)c3ccc(F)cc3F)ccc2=O)cc1)C(=O)OC1CCCC1` [Example 18, Cyclopentyl N-[2-(4-{6-amino-5-[(2,4-difluorophenyl)carbonyl]-2-oxopyridin-1(2H)-yl}phenyl)ethyl]-L-isoleucinate]: the results for the pIC50 in the experiment on THP-1 TNFα release and on p38 MAP Kinase a were above 7.00 and 6.00 to 7.00, respectively.
Taken in the same sequence, the figures for `C[C@H](NCCc1ccc(-n2c(N)c(C(=O)c3ccc(F)cc3F)ccc2=O)cc1)C(=O)OC1CCCC1` [Example 20, Cyclopentyl N-[2-(4-{6-amino-5-[(2,4-difluorophenyl)carbonyl]-2-oxopyridin-1(2H)-yl}phenyl)ethyl]-L-alaninate] were above 7.00 and above 7.00.
As for `Nc1c(C(=O)c2ccc(F)cc2F)ccc(=O)n1-c1ccc(CCN[C@@H](Cc2ccccc2)C(=O)OC2CCCC2)cc1` [Example 22, Cyclopentyl N-[2-(4-{6-amino-5-[(2,4-difluorophenyl)carbonyl]-2-oxopyridin-1(2H)-yl}phenyl)ethyl]-L-phenylalaninate], the pIC50 was above 7.00 in the experiment on THP-1 TNFα release and 6.00 to 7.00 on p38 MAP Kinase a.
For `CC(C)C[C@H](NCCc1cc(F)c(-n2c(N)c(C(=O)c3ccc(F)cc3)ccc2=O)c(F)c1)C(=O)OC1CCCC1` [Example 24, Cyclopentyl N-(2-{4-[6-amino-5-(4-fluorobenzoyl)-2-oxopyridin-1(2H)-yl]-3,5-difluorophenyl}ethyl)-L-leucinate], the pIC50 in the experiment with THP-1 TNFα release and at p38 MAP Kinase a was above 7.00 throughout.
`CC(C)(C)OC(=O)[C@@H](NCCc1cc(F)c(-n2c(N)c(C(=O)c3ccc(F)cc3F)ccc2=O)c(F)c1)c1ccccc1` [Example 35, tert-butyl (2S)-[(2-{4-[6-amino-5-(2,4-difluorobenzoyl)-2-oxopyridin-1(2H)-yl]-3,5-difluorophenyl}ethyl)amino](phenyl)acetate]: the pIC50 in the experiment on THP-1 TNFα release was above 7.00.
Consider `Nc1c(C(=O)c2ccc(F)cc2F)ccc(=O)n1-c1c(F)cc(CCN[C@H](C(=O)OC2CCCC2)c2ccc(F)cc2)cc1F` [Example 47, Cyclopentyl (2S)-{[2-(4-{6-amino-5-[(2,4-difluorophenyl)carbonyl]-2-oxopyridin-1(2H)-yl}-3,5-difluorophenyl)ethyl]amino}(4-fluorophenyl)ethanoate], for which the pIC50 in the experiment on THP-1 TNFα release was above 7.00.
Still for that read-out and setting: the figure for `CC(C)(C)OC(=O)[C@@H](NCCc1cc(F)c(-n2c(N)c(C(=O)c3ccc(F)cc3F)ccc2=O)c(F)c1)c1ccc(F)cc1` [Example 48, tert-butyl (2S)-{[2-(4-{6-amino-5-[(2,4-difluorophenyl)carbonyl]-2-oxopyridin-1(2H)-yl}-3,5-difluorophenyl)ethyl]amino}(4-fluorophenyl)ethanoate] is above 7.00.
For the compound `CC(C)(C)OC[C@H](NCCc1cc(F)c(-n2c(N)c(C(=O)c3ccc(F)cc3F)ccc2=O)c(F)c1)C(=O)O` [Example 69, N-(2-{4-[6-amino-5-(2,4-difluorobenzoyl)-2-oxopyridin-1(2H)-yl]-3,5-difluorophenyl}ethyl)-O-tert-butyl-L-serine], on p38 MAP Kinase a, the pIC50 was above 7.00.
The same measure, in the same setting: the figure for `CC(C)C[C@H](NCCc1ccc(-n2c(N)c(C(=O)c3ccc(F)cc3F)ccc2=O)s1)C(=O)O` [Example 71, N-(2-{5-[6-amino-5-(2,4-difluorobenzoyl)-2-oxopyridin-1(2H)-yl]-2-thienyl}ethyl)-L-leucine] is 6.00 to 7.00.
